These results are taken from patent publication US20160377635A1, “Measurement of Oxytocin and Vasopressin” (Martin-Protean LLC, priority 2013, published 2016).

For data set [1], the target named is albumin (Homo sapiens, UniProt P02768). Nature of the data set: incubation with free thiol containing albumin, acetone precipitation. Format: in vitro ADME. As to the method:
(§1) Oxytocin and vasopressin undergo disulfide exchange with abundant thiol containing compounds under aerobic conditions like those found in blood plasma. […] If albumin (1 mM) is added to that mixture all detectable oxytocin and vasopressin sequester with albumin upon acetone precipitation. Oxytocin immunoreactivity in plasma is associated with high molecular weight species (Szeto et al). When beta-mercaptoethanol (1 M) and histamine (30 mM) are added to plasma, oxytocin and vasopressin in the 1-100 nM range were recovered rather than the 1-100 pM range recovered without thiols or reported routinely with existing commercially available immunoreactivity tests. The mid nanomolar range is much more consistent with the concentrations required in biological assays for these compounds, such as inducing the lactation reflect with rabbit mammary tissue. Nanomolar concentrations for oxytocin and vasopressin are also far more consistent with the doses required for either peptide in intervention regimes.
Acetone extraction of the incubation clears oxytocin and vasopressin from the solution into the pellet with the albumin. In one embodiment, exceptionally short half-life of oxytocin is measured with immunoreactivity on acetone extracted fractions. Observation of disulfide exchange mediated accumulation of oxytocin on high molecular weight proteins in the plasma.

The nature of data set [2]: disulfide exchange with plasma thiols in the presence of air. Format: physicochemical. As to the method:
as §1
Incubating oxytocin and vasopressin them with glutathione at its plasma concentration in the presence of air (as in blood) induces oxytocin and vasopressin to disulfide exchange with glutathione and undergo additional oxidation resulting in the accumulation of diglutathione adducts (FIGS. 4A-C). This additional oxidation-containing product accumulates even in the presence of a vast excess of reducing equivalents in the form of remaining excess reduced glutathione. The introduction of air lead to a disulfide exchange result distinct from that observed in the published literature. The disulfide exchange is inhibited by EDTA which is added to most blood as a preservative. In the body the hormones undergo exchange, but in collected blood the EDTA will inhibit diglutathione formation unless the redox state of the collected blood is perturbed, as FIG. 5.

The test system of data set [3] is excised and bathed section of mammary gland tissue. Conditions: cited from earlier work.
[4] abbreviates: reduced glutathione (1 mM) and oxygen, peptide ~10 nM.
[5] abbreviates: reduced glutathione, reduced cysteine (0.5 mM) and oxygen.

Sequence of albumin (P02768 25-609, species assumed): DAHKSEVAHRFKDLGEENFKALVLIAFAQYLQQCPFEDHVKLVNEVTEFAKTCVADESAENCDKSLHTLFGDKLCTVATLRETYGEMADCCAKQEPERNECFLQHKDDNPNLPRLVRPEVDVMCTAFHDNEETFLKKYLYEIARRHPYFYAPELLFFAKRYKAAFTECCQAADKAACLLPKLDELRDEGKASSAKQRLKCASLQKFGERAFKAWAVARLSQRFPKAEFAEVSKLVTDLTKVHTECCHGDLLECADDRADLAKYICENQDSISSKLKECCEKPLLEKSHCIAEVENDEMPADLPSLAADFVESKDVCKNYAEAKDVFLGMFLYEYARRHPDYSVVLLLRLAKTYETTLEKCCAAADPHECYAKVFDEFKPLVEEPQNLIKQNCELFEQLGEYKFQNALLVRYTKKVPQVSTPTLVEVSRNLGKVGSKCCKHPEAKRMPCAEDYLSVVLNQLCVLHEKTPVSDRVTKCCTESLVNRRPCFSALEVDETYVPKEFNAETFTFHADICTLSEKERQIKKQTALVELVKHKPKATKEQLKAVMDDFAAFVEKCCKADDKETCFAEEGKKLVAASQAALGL

On to `CC[C@H](C)[C@@H]1NC(=O)[C@H](Cc2ccc(O)cc2)NC(=O)[C@@H](N)CSSC[C@@H](C(=O)N2CCC[C@H]2C(=O)N[C@@H](CC(C)C)C(=O)NCC(N)=O)NC(=O)[C@H](CC(N)=O)NC(=O)[C@H](CCC(N)=O)NC1=O` [oxytocin], for which the adsorption to albumin result in data set [1] (pH 7.4) was “quantitative adsorption to albumin”. Further, the figures for the “adduct formation by disulfide exchange” value in data set [2] (setting [4]) and in data set [2] (setting [5]) were “form diglutathione adducts” and “form dicysteine adducts”, respectively. Further, in data set [3], the “linear response range for contraction response” value is 1 to 20 ng/mL.

As to `NC(=O)CC[C@@H]1NC(=O)[C@H](Cc2ccccc2)NC(=O)[C@H](Cc2ccc(O)cc2)NC(=O)[C@@H](N)CSSC[C@@H](C(=O)N2CCC[C@H]2C(=O)N[C@@H](CCCN=C(N)N)C(=O)NCC(N)=O)NC(=O)[C@H](CC(N)=O)NC1=O` [vasopressin], in data set [1] (pH 7.4, room temperature (or 37° C.), with or without glutathione and cysteine), the adsorption to albumin entry was “quantitative adsorption to albumin”. Besides, the “adduct formation by disulfide exchange” value is recorded as “form diglutathione adducts” in data set [2] (setting [4]) and “form dicysteine adducts” in data set [2] (setting [5]).
